The results in this text go back to ChEMBL document CHEMBL2074265, “Isolation and characterization of Caco-2 subclones expressing high levels of multidrug resistance protein efflux transporter” (Pharm Res, 2003).

In the assay the target is ATP-dependent translocase ABCB1 (Homo sapiens, UniProt P08183).

A word on the Ki: it is the equilibrium dissociation constant of an inhibitor or competing ligand from its target. Read a high Ki as lower affinity.

Chain of ATP-dependent translocase ABCB1 (P08183 whole entry): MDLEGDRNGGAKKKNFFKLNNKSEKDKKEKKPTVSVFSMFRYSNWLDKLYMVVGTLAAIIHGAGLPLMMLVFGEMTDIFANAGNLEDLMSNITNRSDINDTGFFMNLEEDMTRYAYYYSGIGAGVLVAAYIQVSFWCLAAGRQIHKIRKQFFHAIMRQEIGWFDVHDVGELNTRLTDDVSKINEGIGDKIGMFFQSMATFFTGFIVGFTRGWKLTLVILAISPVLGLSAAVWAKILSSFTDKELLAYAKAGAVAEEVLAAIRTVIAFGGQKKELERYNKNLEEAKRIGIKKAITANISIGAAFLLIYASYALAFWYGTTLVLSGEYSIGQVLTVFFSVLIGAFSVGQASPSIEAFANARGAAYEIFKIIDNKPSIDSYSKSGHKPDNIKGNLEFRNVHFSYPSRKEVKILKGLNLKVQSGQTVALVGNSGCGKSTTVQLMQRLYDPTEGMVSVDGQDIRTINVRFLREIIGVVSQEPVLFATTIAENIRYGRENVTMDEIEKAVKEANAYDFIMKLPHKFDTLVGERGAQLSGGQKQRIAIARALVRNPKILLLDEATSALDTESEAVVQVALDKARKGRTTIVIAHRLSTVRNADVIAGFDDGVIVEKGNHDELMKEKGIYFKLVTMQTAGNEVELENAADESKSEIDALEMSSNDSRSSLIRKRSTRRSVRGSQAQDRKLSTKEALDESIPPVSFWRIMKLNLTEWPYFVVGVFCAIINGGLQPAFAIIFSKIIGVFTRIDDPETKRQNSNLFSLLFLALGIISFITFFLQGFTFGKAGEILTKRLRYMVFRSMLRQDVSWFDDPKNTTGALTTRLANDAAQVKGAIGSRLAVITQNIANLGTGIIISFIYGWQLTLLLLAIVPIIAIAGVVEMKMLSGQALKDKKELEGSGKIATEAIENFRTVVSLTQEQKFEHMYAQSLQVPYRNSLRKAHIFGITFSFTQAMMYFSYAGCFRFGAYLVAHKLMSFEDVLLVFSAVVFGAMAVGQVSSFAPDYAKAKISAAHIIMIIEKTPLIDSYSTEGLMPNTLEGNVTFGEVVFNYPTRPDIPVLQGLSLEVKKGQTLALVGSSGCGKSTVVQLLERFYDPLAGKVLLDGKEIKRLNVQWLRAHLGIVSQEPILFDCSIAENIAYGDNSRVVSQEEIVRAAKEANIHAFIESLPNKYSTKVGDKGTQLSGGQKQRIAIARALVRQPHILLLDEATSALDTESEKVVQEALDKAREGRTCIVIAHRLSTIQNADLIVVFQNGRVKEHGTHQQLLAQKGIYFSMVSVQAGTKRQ
Description: TP_TRANSPORTER: transepithelial transport of digoxin (basal to apical) in Caco-2 cells

`COC(=O)[C@H]1[C@H]2C[C@@H]3c4[nH]c5cc(OC)ccc5c4CCN3C[C@H]2C[C@@H](OC(=O)c2cc(OC)c(OC)c(OC)c2)[C@@H]1OC` [RESERPINE] gave a Ki of 2310 nM.
